{"source": "patent US11559512B2", "about": "“Composition for prevention, alleviation, and/or treatment of heat illness” (priority 2017, dated 2023)", "key": {"[1]": {"system": "human vascular endothelial cells (HUVECs)", "experimental": "Then, 2 mL of trypsin/EDTA was added to the cells, and the cells were detached by incubation at 37° C. in a 5% CO2 environment. After the cell detachment, 5 mL/dish of a culture medium was added, and the cells were transferred to a 15-mL tube and centrifuged at 1200 rpm for 5 minutes in a centrifuge. The supernatant was removed, and then, the number of cells was adjusted to a cell density of 5×10^4 cells/mL using a cell counting kit by the addition of 5 mL of a culture medium. Then, two 6-well plates were used, and the solution with the adjusted HUVEC density was inoculated at 4 mL/well to 3 wells of each plate. Each phytochemical component was added at 4 μL (final concentration: 10 μM)/well to one well of each plate. Also, a phytochemical dissolving solution DMSO was added at 4 μL/well to the remaining wells to prepare a control. […]\nSerial dilutions of auraptene were added to the cells, and the cell death of the HUVECs caused by heat stress was observed by crystal violet staining."}, "[2]": {"system": "human vascular endothelial cells (HUVECs)", "experiment": "DiOC6 / PI staining and flow cytometry of HUVECs under heat stress load", "format": "cell-based", "details": "heat stress load 40° C. for 2 days, flow cytometry, vs DMSO", "experimental": "Two days later, the culture solution of each well was removed with an aspirator. […] The supernatant was removed, and then, 5 mL of a culture medium at 37° C. was added to the cells and stirred. After the stirring, DiOC6 (final concentration: 80 nM) was added to each 15-mL tube and reacted at the same temperature as the culture temperature for 30 minutes.\nThe supernatant was removed, and then, 1 mL of a culture medium was added to the cells, and 2 μL of PI (Sigma-Aldrich Co. LLC) was added. The cells thus supplemented were transferred to a FACS tube and measured in a flow cytometer (BD).\nIn order to quantify the effects, the cytotoxicity suppressive effects of auraptene (component A) and tangeretin (component T) inhibiting the cell death caused by the load of heat stress were quantified using DiOC6 staining and flow cytometry as described above. The DiOC6 dye is a reagent for measuring mitochondrial activity and is a reagent that can perform measurement based on the attenuation of the amount of fluorescence by cytotoxicity (cell death, etc.)."}, "[3]": {"system": "fat droplets in human vascular endothelial cells (HUVECs)", "experiment": "Intracellular fat droplets, BODIPY staining, confocal microscopy", "format": "cell-based", "experimental": "(§1) Then, nine 35-mm dishes were provided, and 2 mL/dish of the solution with the adjusted HUVEC density was inoculated. Auraptene (10 mM) and tangeretin (10 mM) were each added at 2 μL (final concentration: 10 μM)/dish to three dishes. Also, DMSO was added at 2 μL/dish to the remaining 3 dishes to prepare a control.\nThe supernatant of the HUVECs cultured in each 35-mm dish was removed, and 2 mL/dish of 4% paraformaldehyde in a phosphate buffer solution was added. The cells were left standing at room temperature for 1 hour for cell fixation. The solution was removed, and then, the cells were rinsed twice. 1 mL/dish of BODIPY diluted 2000-fold with a FACS buffer was added, and the cells were left standing at room temperature for 30 minutes in the dark for reaction.\n(§2) The solution was removed, and then, the cells were rinsed twice. Two drops of Diamond Antifade Mountant with DAPI were added to the cells, and a round glass cover was put on the cells, followed by fluorescence photographing under a confocal laser scanning microscope."}, "PPARα": {"system": "PPARα", "experiment": "PPARα expression in HUVECs, antibody staining, confocal microscopy", "format": "cell-based, human", "experimental": "as §1, with “Then, six” for “Then, nine”, “to two” for “to three”, “remaining 2” for “remaining 3”\n(§3) The supernatant of the HUVECs cultured in each 35-mm dish was removed, and 2 mL/dish of 4% paraformaldehyde in a phosphate buffer solution was added. The cells were left standing at room temperature for 1 hour.\n(§4) The solution was removed, and then, the cells were rinsed twice. 2 mL/dish of 0.5% Triton-X00 (Wako Pure Chemical Industries, Ltd.) in PBS was added, and the cells were left standing at room temperature for 5 minutes. The solution was removed, and then, the cells were rinsed twice. 1 mL/dish of an anti-ABCD3 antibody, an anti-PPARα antibody or an anti-PPARγ antibody, each of which was diluted 150-fold with a FACS buffer, was added, and the cells were left standing at room temperature for 2 hours for reaction.\nas §2, with “The solution was removed, and then, the cells were rinsed twice. 1 mL/dish of DyLight 649-labeled anti-Rabbit IgG antibody diluted 500-fold with a FACS buffer was added, and the cells were left standing at room temperature for 1 hour in the dark for reaction. The” for “The”"}, "PPARγ": {"system": "PPARγ", "experiment": "PPARγ expression in HUVECs, antibody staining, confocal microscopy", "format": "cell-based, human", "experimental": "as §1, with “Then, six” for “Then, nine”, “to two” for “to three”, “remaining 2” for “remaining 3”\nas §3, §4\nas §2, with “The solution was removed, and then, the cells were rinsed twice. 1 mL/dish of DyLight 649-labeled anti-Rabbit IgG antibody diluted 500-fold with a FACS buffer was added, and the cells were left standing at room temperature for 1 hour in the dark for reaction. The” for “The”"}, "ABCD3": {"system": "ABCD3", "experiment": "ABCD3 expression in HUVECs, antibody staining, confocal microscopy", "format": "cell-based, human", "details": "usual culture and heat stress load (40° C. for 3 days), vs DMSO", "experimental": "as §1, with “Then, six” for “Then, nine”, “to two” for “to three”, “remaining 2” for “remaining 3”\nas §3, §4\nThe solution was removed, and then, the cells were rinsed twice. […] Two drops of Diamond Antifade Mountant with DAPI were added to the cells, and a round glass cover was put on the cells, followed by fluorescence photographing under a confocal laser scanning microscope."}, "[4]": {"details": "HUVECs, 40° C. for 2 days, final concentration 10 μM"}, "[5]": {"details": "Table 2 summary, HUVECs 40° C., 37° C. as comparative control"}, "[6]": {"details": "HUVECs, 40° C. and 1 day, 10 μM, vs DMSO"}}, "note": "“Also recorded” adds a separate entry of the source. Read-outs that look alike come from different tables or passages of the source."}
{"smiles": "C[N+](C)(C)C[C@H](O)CC(=O)[O-]", "note": "[L-carnitine, reference compound]", "values": [{"measurement": "concentration at which the cell death suppressive effect was confirmed (value in brackets)", "setting": "[1]; HUVECs, 40° C. for 3 days, crystal violet staining", "result": 15, "unit": "mM"}, {"measurement": "concentration at which the cell death suppressive effect was observed", "setting": "[1]; HUVECs, 40° C. for 3 days, 0, 1.2 or 2.5 mg/ml", "result": 2.5, "unit": "mg/mL"}, {"measurement": "concentration required relative to auraptene", "setting": "[1]; cell death suppressive effect, HUVECs 40° C.", "result": "approximately 25000 times"}]}
{"smiles": "CC(C)(Oc1ccc(CCNC(=O)c2ccc(Cl)cc2)cc1)C(=O)O", "note": "[bezafibrate, reference compound]", "values": [{"measurement": "suppression of cytotoxicity caused by the load of heat stress (phase contrast microscopic observation)", "setting": "[1]", "result": "unable to suppress the cytotoxicity"}]}
{"smiles": "C[N+](C)(C)[C@@H](Cc1c[nH]c(=S)[nH]1)C(=O)[O-]", "note": "[ergothioneine, reference compound]", "values": [{"measurement": "suppression of cytotoxicity caused by the load of heat stress (phase contrast microscopic observation)", "setting": "[1]; [4]", "result": "unable to suppress the cytotoxicity"}]}
{"smiles": "COc1ccc(-c2cc(=O)c3c(OC)c(OC)c(OC)c(OC)c3o2)cc1OC", "note": "[nobiletin, reference compound]", "values": [{"measurement": "suppression of cytotoxicity caused by the load of heat stress (phase contrast microscopic observation)", "setting": "[1]; [4]", "result": "unable to suppress the cytotoxicity"}]}
{"smiles": "COc1ccc2ccc(=O)oc2c1CC=C(C)C", "note": "[osthol, reference compound]", "values": [{"measurement": "suppression of cytotoxicity caused by the load of heat stress (phase contrast microscopic observation)", "setting": "[1]; [4]", "result": "unable to suppress the cytotoxicity"}]}
{"smiles": "Oc1ccc(C=Cc2cc(O)cc(O)c2)cc1", "note": "[resveratrol, reference compound]", "values": [{"measurement": "suppression of cytotoxicity caused by the load of heat stress (phase contrast microscopic observation)", "setting": "[1]", "result": "unable to suppress the cytotoxicity"}]}
{"smiles": "C[S+]([O-])CCCCN=C=S", "note": "(centres unmarked) [sulforaphane, reference compound]", "values": [{"measurement": "suppression of cytotoxicity caused by the load of heat stress (phase contrast microscopic observation)", "setting": "[1]", "result": "unable to suppress the cytotoxicity"}]}
{"smiles": "COc1ccc(-c2cc(=O)c3c(OC)c(OC)c(OC)c(OC)c3o2)cc1", "note": "[tangeretin, 4′,5,6,7,8-pentamethoxyflavone]", "values": [{"measurement": "Cytotoxicity (cell death)", "setting": "[1]", "result": "Suppressed"}, {"measurement": "cell survival by crystal violet staining", "setting": "[1]; HUVECs cultured at 40° C. for 3 days, vs DMSO", "result": "evidently increased cell survival"}, {"measurement": "number of DiOC6 staining-positive cells (suppression of cytotoxicity, cell death)", "setting": "[2]", "result": "increased the number of DiOC6 staining-positive cells"}, {"measurement": "amount of fat droplets under heat stress load", "setting": "[3]; HUVECs, 40° C. for 2 days, 10 μM, BODIPY, vs DMSO", "result": "decrease in the amount of fat droplets; also recorded: decreased the amount of fat droplets"}, {"measurement": "amount of fat droplets at usual culture", "setting": "[3]; HUVECs, usual culture (37° C.), 10 μM, vs DMSO", "result": "no change in the amount of fat droplets"}, {"measurement": "Amount of fat droplets", "setting": "[3]; [5]", "result": "Decreased"}, {"measurement": "expression of PPARα", "setting": "PPARα; [6]", "result": "increase in the expression of PPARα"}, {"measurement": "PPARα", "setting": "PPARα; [5]", "result": "Increased"}, {"measurement": "expression of PPARγ", "setting": "PPARγ; [6]", "result": "increasing effect was not observed"}, {"measurement": "PPARγ", "setting": "PPARγ; [5]", "result": "Increased"}, {"measurement": "change in the expression of ABCD3", "setting": "ABCD3", "result": "change in the expression of ABCD3 was not observed"}]}
